Laboratory results reported in patent US10344025B2, “GLS1 inhibitors for treating disease” (Board of Regents, The University of Texas System, priority 2014, dated 2019).

Columns and labels:
A549 cells = experiment: Proliferation Assay (A549 viability, Cell Titer Fluor, 72 hours); assay type: cell-based; settings: Homo sapiens, A549, 72 h
Procedure, shortened: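 Cell Titer Fluor fluorescence after 72 h compound treatment (0.5% DMSO, 37 °C, 5% CO2) of A549 cells plated 24 h earlier at 1000/well. Four-parameter logistic fitting gave IC50.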

[1] = molecular target: purified recombinant human GAC (GLS1) (Homo sapiens (Human), UniProt O94925); experiment: GLS1 Enzymatic Activity Assay (dual-coupled enzymatic assay, resorufin/Amplex UltraRed readout); assay type: biochemical;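 also: glutamate from GAC coupled via glutamate oxidase and peroxidase to resorufin, read as fluorescence (ex 530, em 590 nm) kinetically or at 20 min, four-parameter logistic IC50 fit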
purified recombinant human GAC (GLS1), sequence (O94925 other isoform, or with tags, fused parts or gaps): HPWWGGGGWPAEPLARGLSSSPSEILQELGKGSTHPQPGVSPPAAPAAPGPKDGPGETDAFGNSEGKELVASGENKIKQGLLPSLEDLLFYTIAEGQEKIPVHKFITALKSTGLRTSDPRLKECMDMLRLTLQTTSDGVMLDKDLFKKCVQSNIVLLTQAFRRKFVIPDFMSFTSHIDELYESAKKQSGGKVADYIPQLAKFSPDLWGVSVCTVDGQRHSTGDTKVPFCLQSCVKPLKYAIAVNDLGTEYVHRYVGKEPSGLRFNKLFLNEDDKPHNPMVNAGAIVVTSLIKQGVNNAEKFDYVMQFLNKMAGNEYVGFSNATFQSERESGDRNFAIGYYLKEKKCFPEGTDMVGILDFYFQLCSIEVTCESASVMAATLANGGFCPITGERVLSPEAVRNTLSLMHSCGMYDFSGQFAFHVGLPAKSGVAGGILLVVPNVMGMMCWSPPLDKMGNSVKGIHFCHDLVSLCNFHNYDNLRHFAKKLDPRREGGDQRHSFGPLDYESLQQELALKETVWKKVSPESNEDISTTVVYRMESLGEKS

SMILES | EC50 (A549 cells) | IC50 [1]
O=C(NCc1cc(C(F)(F)F)ccn1)c1cn(CC(F)CCc2nnc(C(=O)NCCC(F)(F)F)s2)nn1 (stereo not shown) [Example 511, 5-{3-fluoro-4-[4-({[4-(trifluoromethyl)pyridin-2-yl]methyl}carbamoyl)-1H-1,2,3-triazol-1-yl]butyl}-N-(3,3,3-trifluoropropyl)-1,3,4-thiadiazole-2-carboxamide] | 500 to 5000 nM | 100 to 500 nM
CCNC(=O)c1cn(CCC(F)Cn2cc(C(=O)NCc3cc(C(F)(F)F)ccn3)nn2)nn1 (stereo not shown) [Example 154, N-ethyl-1-{3-fluoro-4-[4-({[4-(trifluoromethyl)pyridin-2-yl]methyl}carbamoyl)-1H-1,2,3-triazol-1-yl]butyl}-1H-1,2,3-triazole-4-carboxamide] | 500 to 5000 nM | 500 to 5000 nM
O=C(Cc1cccc(OC(F)(F)F)c1)Nc1nnc(CCC(F)Cn2cc(C(=O)NCc3ncccc3F)nn2)s1 (stereo not shown) [Example 537, 1-[2-fluoro-4-(5-{2-[3-(trifluoromethoxy)phenyl]acetamido}-1,3,4-thiadiazol-2-yl)butyl]-N-[(3-fluoropyridin-2-yl)methyl]-1H-1,2,3-triazole-4-carboxamide] | 100 to 500 nM | < 100 nM
O=C(NCc1cccc(C(F)(F)F)c1)c1cn(CCCCn2cc(C(=O)NCC3CCCOC3)nn2)nn1 (stereo not shown) [Example 119, N-(oxan-3-ylmethyl)-1-{4-[4-({[3-(trifluoromethyl)phenyl]methyl}carbamoyl)-1H-1,2,3-triazol-1-yl]butyl}-1H-1,2,3-triazole-4-carboxamide] | 100 to 500 nM | 100 to 500 nM
O=C(NCC1CCCOC1)c1cn(CCC(F)Cn2cc(C(=O)NCc3cc(C(F)(F)F)ccn3)nn2)nn1 (stereo not shown) [Example 473, 1-(2-fluoro-4-{4-[(oxan-3-ylmethyl)carbamoyl]-1H-1,2,3-triazol-1-yl}butyl)-N-{[4-(trifluoromethyl)pyridin-2-yl]methyl}-1H-1,2,3-triazole-4-carboxamide] | 100 to 500 nM | 100 to 500 nM
O=C(NCc1cncc(C(F)(F)F)c1)c1cn(CCCCn2cc(C(=O)NCC3CCCO3)nn2)nn1 (stereo not shown) [Example 92, N-(oxolan-2-ylmethyl)-1-{4-[4-({[5-(trifluoromethyl)pyridin-3-yl]methyl}carbamoyl)-1H-1,2,3-triazol-1-yl]butyl}-1H-1,2,3-triazole-4-carboxamide] | 500 to 5000 nM | 500 to 5000 nM
CNC(=O)c1cn(CCCCc2ccc(NC(=O)Cc3cccc(-c4ccccn4)c3)nn2)nn1 [Example 545, N-methyl-1-[4-(6-{2-[3-(pyridin-2-yl)phenyl]acetamido}pyridazin-3-yl)butyl]-1H-1,2,3-triazole-4-carboxamide] | 100 to 500 nM | < 100 nM
O=C(Cc1cccnc1)Nc1cn(CCCCn2cc(C(=O)NCc3cccnc3)nn2)nn1 [Example 320, 1-(4-{4-[2-(pyridin-3-yl)acetamido]-1H-1,2,3-triazol-1-yl}butyl)-N-(pyridin-3-ylmethyl)-1H-1,2,3-triazole-4-carboxamide] | 500 to 5000 nM | 100 to 500 nM
O=C(NCc1cc(C(F)(F)F)ccn1)c1cn(CCCCn2cc(C(=O)NCC3CC3)nn2)nn1 [Example 89] | 500 to 5000 nM | 500 to 5000 nM
Cc1ccc(CNC(=O)c2cn(CC(F)CCc3nnc(NC(=O)Cc4cccc(OC(F)(F)F)c4)s3)nn2)cn1 (stereo not shown) [Example 559, 1-[2-fluoro-4-(5-{2-[3-(trifluoromethoxy)phenyl]acetamido}-1,3,4-thiadiazol-2-yl)butyl]-N-[(6-methylpyridin-3-yl)methyl]-1H-1,2,3-triazole-4-carboxamide] | 100 to 500 nM | < 100 nM
O=C(Cc1cccc(OC(F)(F)F)c1)Nc1cn(CCCCn2cc(C(=O)NCC3CCCC3)nn2)nn1 [Example 292, N-(cyclopentylmethyl)-1-[4-(4-{2-[3-(trifluoromethoxy)phenyl]acetamido}-1H-1,2,3-triazol-1-yl)butyl]-1H-1,2,3-triazole-4-carboxamide] | 500 to 5000 nM | 100 to 500 nM
CCOC(=O)NCc1cn(CCCCn2cc(C(=O)NCc3cccc(OC(F)(F)F)c3)nn2)nn1 [Example 54, ethyl N-[(1-{4-[4-({[3-(trifluoromethoxy)phenyl]methyl}carbamoyl)-1H-1,2,3-triazol-1-yl]butyl}-1H-1,2,3-triazol-4-yl)methyl] carbamate] | 100 to 500 nM | 100 to 500 nM

Further lines, results first:

EC50 (A549 cells) | IC50 [1] | SMILES
< 100 nM | < 100 nM | O=C(Cc1ccccn1)Nc1nnc(CCC(F)Cn2cc(C(=O)NCc3cncc(C(F)(F)F)c3)nn2)s1 (stereo not shown) [Example 571, 1-(2-fluoro-4-(5-(2-(pyridin-2-yl)acetamido)-1,3,4-thiadiazol-2-yl)butyl)-N-((5-(trifluoromethyl)pyridin-3-yl)methyl)-1H-1,2,3-triazole-4-carboxamide]
< 100 nM | < 100 nM | O=C(Cc1cccc(OC(F)(F)F)c1)Nc1cn(CCC(F)Cn2cc(C(=O)NCc3cccc(OC(F)(F)F)c3)nn2)nn1 (stereo not shown) [Example 408, 1-[2-fluoro-4-(4-{2-[3-(trifluoromethoxy)phenyl]acetamido}-1H-1,2,3-triazol-1-yl)butyl]-N-{[3-(trifluoromethoxy)phenyl]methyl}-1H-1,2,3-triazole-4-carboxamide]
100 to 500 nM | < 100 nM | COCCNC(=O)c1cn(CC(F)CCc2nnc(NC(=O)Cc3cccc(OC(F)(F)F)c3)s2)nn1 (stereo not shown) [Example 532, 1-[2-fluoro-4-(5-{2-[3-(trifluoromethoxy)phenyl]acetamido}-1,3,4-thiadiazol-2-yl)butyl]-N-(2-methoxyethyl)-1H-1,2,3-triazole-4-carboxamide]
100 to 500 nM | 100 to 500 nM | O=C(NCc1cccc(OC(F)(F)F)c1)c1cn(CCCCn2cc(C(=O)NCC3CCCOC3)nn2)nn1 (stereo not shown) [Example 117, N-(oxan-3-ylmethyl)-1-{4-[4-({[3-(trifluoromethoxy)phenyl]methyl}carbamoyl)-1H-1,2,3-triazol-1-yl]butyl}-1H-1,2,3-triazole-4-carboxamide]
100 to 500 nM | 100 to 500 nM | O=C(CN1CCC(F)(F)CC1)Nc1cn(CCCCn2cc(C(=O)NCc3cc(Cl)ccc3F)nn2)nn1 [Example 359, N-[(5-chloro-2-fluorophenyl)methyl]-1-(4-{4-[2-(4,4-difluoropiperidin-1-yl)acetamido]-1H-1,2,3-triazol-1-yl}butyl)-1H-1,2,3-triazole-4-carboxamide]
< 100 nM | < 100 nM | CNC(=O)c1cn(CCCCc2ccc(NC(=O)CN3CCN(c4ccccc4OC(F)(F)F)CC3=O)nn2)nn1 [Example 249, N-methyl-1-(4-(6-(2-(2-oxo-4-(2-(trifluoromethoxy)phenyl)piperazin-1-yl)acetamido)pyridazin-3-yl)butyl)-1H-1,2,3-triazole-4-carboxamide]
< 100 nM | < 100 nM | O=C(Cc1cccc(OC(F)(F)F)c1)Nc1cn(CCCCn2cc(C(=O)NCc3cc(Cl)ccc3F)nn2)nn1 [Example 334, N-[(5-chloro-2-fluorophenyl)methyl]-1-[4-(4-{2-[3-(trifluoromethoxy)phenyl]acetamido}-1H-1,2,3-triazol-1-yl)butyl]-1H-1,2,3-triazole-4-carboxamide]
< 100 nM | < 100 nM | O=C(Cc1cccc(OC(F)(F)F)c1)Nc1cn(CCC(F)Cn2cc(C(=O)NCc3ccccn3)nn2)nn1 (stereo not shown) [Example 403, 1-[2-fluoro-4-(4-{2-[3-(trifluoromethoxy)phenyl]acetamido}-1H-1,2,3-triazol-1-yl)butyl]-N-(pyridin-2-ylmethyl)-1H-1,2,3-triazole-4-carboxamide]
< 100 nM | < 100 nM | Cc1ccc(CNC(=O)c2cn(CCCCn3cc(NC(=O)Cc4cccc(OC(F)(F)F)c4)nn3)nn2)cn1 [Example 299, N-[(6-methylpyridin-3-yl)methyl]-1-[4-(4-{2-[3-(trifluoromethoxy)phenyl]acetamido}-1H-1,2,3-triazol-1-yl)butyl]-1H-1,2,3-triazole-4-carboxamide]
< 100 nM | < 100 nM | O=C(NCc1cc(OC(F)(F)F)ccc1F)c1cn(CCC(F)Cn2cc(C(=O)NCc3ncccc3F)nn2)nn1 (stereo not shown) [Example 427, 1-{2-fluoro-4-[4-({[2-fluoro-5-(trifluoromethoxy)phenyl]methyl}carbamoyl)-1H-1,2,3-triazol-1-yl]butyl}-N-[(3-fluoropyridin-2-yl)methyl]-1H-1,2,3-triazole-4-carboxamide]
< 100 nM | < 100 nM | O=C(Cc1ccccn1)Nc1cn(CC(F)CCn2cc(C(=O)NCc3cc(OC(F)(F)F)ccc3F)nn2)nn1 (stereo not shown) [Example 363, 1-(3-fluoro-4-{4-[2-(pyridin-2-yl)acetamido]-1H-1,2,3-triazol-1-yl}butyl)-N-{[2-fluoro-5-(trifluoromethoxy)phenyl]methyl}-1H-1,2,3-triazole-4-carboxamide]
< 100 nM | < 100 nM | O=C(Cc1ccccn1)Nc1cn(CCC(F)Cn2cc(C(=O)NCc3cc(OC(F)(F)F)ccc3F)nn2)nn1 (stereo not shown) [Example 419, 1-(2-fluoro-4-{4-[2-(pyridin-2-yl)acetamido]-1H-1,2,3-triazol-1-yl}butyl)-N-{[2-fluoro-5-(trifluoromethoxy)phenyl]methyl}-1H-1,2,3-triazole-4-carboxamide]
< 100 nM | < 100 nM | O=C(NCc1cc(C(F)(F)F)ccn1)c1cn(CC(F)CCc2nnc(C(=O)NCc3cccc(OC(F)(F)F)c3)s2)nn1 (stereo not shown) [Example 446, 5-{3-fluoro-4-[4-({[4-(trifluoromethyl)pyridin-2-yl]methyl}carbamoyl)-1H-1,2,3-triazol-1-yl]butyl}-N-{[3-(trifluoromethoxy)phenyl]methyl}-1,3,4-thiadiazole-2-carboxamide]
< 100 nM | < 100 nM | O=C(Cc1cc(OC(F)(F)F)ccc1F)Nc1nnc(CCC(F)Cn2cc(C(=O)NCc3cc(C(F)(F)F)ccn3)nn2)s1 (stereo not shown) [Example 517, 1-[2-fluoro-4-(5-{2-[2-fluoro-5-(trifluoromethoxy)phenyl]acetamido}-1,3,4-thiadiazol-2-yl)butyl]-N-{[4-(trifluoromethyl)pyridin-2-yl]methyl}-1H-1,2,3-triazole-4-carboxamide]
